Measured values published in patent US9993494B2, “Compositions and methods for treating fibrotic disease” (eFFECTOR Therapeutics, Inc., priority 2014, dated 2018).

Columns and labels:
Assay type in all cases: cell-based
[1] = test system: normal human lung fibroblasts; test: Procollagen Type 1 C-Peptide (PIPC) EIA in culture media of TGFβ-treated fibroblasts; settings: fibroblasts treated with TGFβ, 24 hours, procollagen ELISA
Experimental: (§1) Briefly, normal human lung fibroblasts (Lonza #CC-2512; cell passage numbers 2 through 5 were used for all experiments) were seeded (Day 0) and cultured in Dulbecco's modified Eagle medium (DMEM) supplemented with 10% fetal bovine serum (FBS), penicillin, streptomycin and glutamax (Invitrogen) at 37° C. in a humidified incubator with 5% CO2 overnight. On Day 1, cells were harvested, washed with phosphate buffered saline (PBS), and then incubated for 48 hours in fresh serum-free DMEM supplemented with penicillin, streptomycin, and glutamax.
(§2) After this 24 hour incubation, procollagen type 1 levels were measured by collecting culture media, centrifuging to pellet cellular debris, and stored at −80° C. Procollagen Type 1 C-Peptide (PIPC) was quantified using the (PIP) EIA kit (Clontech, Cat. No. MK101) according to manufacturer's instructions. The TGFβ-treated fibroblasts of this example were examined by ribosomal profiling (about 6×10^6 cells/10 cm plate) and western blot analysis (about 1×10^6 cells/well of a 6-well plate).
as §1, with “(Lonza;” for “(Lonza #CC-2512;”, “CO2 conditions” for “CO2”, “glutamax. On Day 3, cells were harvested, resuspended in fresh serum-free DMEM containing silvestrol (1, 5, 10, 75, 100, 500, or 1000 nM) and 10 ng/ml TGFβ, and cultured for 24 hours. Controls included untreated cells and cells treated with only TGFβ.” for “glutamax.”
as §2, with “kit (Clontech)” for “kit (Clontech, Cat. No. MK101)”, “example are” for “example were”
The levels of α-SMA and procollagen type 1, markers of fibroblast transdifferentiation into myofibroblasts and a surrogate for fibrotic disease progression, were measured after a 24 hour incubation of fibroblasts in the presence or absence of TGFβ sieIF4A1 or siCont. The knockdown efficiency was determined by quantitating the eIF4A mRNA level by qPCR (data not shown) and assessing the protein level by western analysis (see FIG. 11).

[2] = test system: normal human lung fibroblasts; test: Western blot of α-smooth muscle actin (α-SMA) in TGFβ-treated fibroblasts; settings: fibroblasts treated with TGFβ, 24 hours, western blot
Experimental: as §1, §2
TGFβ-dependent activation of the PI3K/Akt/mTOR and ERK pathways were also examined by western blot analysis (about 1×10^6 cells/well from a 6-well plate). Briefly, cells were washed with PBS and lysed in 1× cell lysis buffer (Cell Signaling Technology, Inc., Danvers, Mass.) for 15 minutes at 4° C. Lysates were briefly sonicated, clarified by centrifugation for 15 minutes at 14,000 rpm, and then supernatants were collected. Protein concentration in the soluble fraction was determined by BCA protein assay (Thermo Scientific, Rockford, Ill.). Samples of protein (20 μg) were resolved on 4-20% Bis-Tris gradient gel (Invitrogen, Carlsbad, Calif.) and transferred to nitrocellulose membrane. The resulting blots were blocked for 1 hour at room temperature with Odyssey blocking solution (LI-COR) and then incubated with primary antibodies at 4° C. overnight. The following day, each blot was washed three times for 10 minutes in TBST, and then incubated with goat anti-rabbit fluorescent conjugated secondary antibody (IRDye 800 CW at 1:20,000; LI-COR) for 1 hour at room temperature. The blots were washed and scanned, and then specific proteins were detected by using the LI-COR Odyssey infrared imager. The following antibodies were used at 1:1000 dilution: anti-α-actin (Sigma #A2547), anti-phospho-4EBP(Ser65), anti-phospho-rpS6(Ser235/236)(#4858), anti-phospho-ERK1/2(Thr202/Tyr204)(#4370), anti-phospho-p70S6K(Thr421/Ser424)(#9204), anti-phospho-pAKT(Ser473), anti-phospho-MNK(Thr197/202), and anti-β-actin (#4970). Unless otherwise indicated, the antibodies were from Cell Signaling Technology, Inc. (Danvers, Mass.).
as §1, with “(Lonza;” for “(Lonza #CC-2512;”, “CO2 conditions” for “CO2”, “glutamax. On Day 3, cells were harvested, resuspended in fresh serum-free DMEM containing silvestrol (1, 5, 10, 75, 100, 500, or 1000 nM) and 10 ng/ml TGFβ, and cultured for 24 hours. Controls included untreated cells and cells treated with only TGFβ.” for “glutamax.”
as §2, with “kit (Clontech)” for “kit (Clontech, Cat. No. MK101)”, “example are” for “example were”

[3] = test system: normal human lung fibroblasts; test: Ribosomal profiling: translational efficiency in TGFβ-treated fibroblasts; settings: vs untreated fibroblasts
Experimental: Ribosomal profiling allows for measurement of changes in transcription and translation on a genome-wide basis accompanying TGFβ-dependent transformation of fibroblasts to myofibroblasts. Ribosomal profiles of the TGFβ-treated fibroblasts from Example 1 (about 6×10^6 cells/10 cm plate) were prepared and analyzed for changes in translational efficiencies with respect to potential disease-associated cellular changes accompanying this TGFβ-induced transformation.
Briefly, cells were washed with cold PBS supplemented with cycloheximide and lysed with 1× mammalian cell lysis buffer for 10 minutes on ice. Lysates were clarified by centrifugation for 10 minutes at 14,000 rpm and supernatants were collected. Cell lysates were processed to generate ribosomal protected fragments and total mRNA according to the instructions included with the ARTseq Ribosome Profiling Kit (Illumina, San Diego, Calif.). Sequencing of total RNA (RNA) and of ribosome-protected fragments of RNA (RPF) was carried out using RNA-Seq methodology according to the manufacturer's instructions (Illumina). To analyze the ribosomal profiles, RNA-Seq reads were processed with tools from the FASTX-Toolkit (fastq_quality_trimmer, fastx_clipper and fastx_trimmer). Unprocessed and processed reads were evaluated for a variety of quality measures using FastQC, and processed reads were mapped to the human genome using TopHat (see, e.g., Trapnell et al., Bioinformatics 25:1105, 2009). Gene-by-gene assessment of the number of fragments strictly and uniquely mapping to the coding region of each gene was conducted using HTSeq-count, a component of the HTSeq package. […] Genes with low counts in either RPF or RNA were excluded from differential analyses. Pathway and network analyses of differential data were conducted using Ingenuity Pathway Analysis (IPA).

**Q.** With `COC(=O)c1ccc2c(c1)NC(=O)/C2=C(\Nc1ccc(N(C)C(=O)CN2CCN(C)CC2)cc1)c1ccccc1` [Nintedanib] as the molecule, how does the “% Renormalization Collagen” value [1] read?
**A.** +++ (+++ = >60%)

**Q.** And the “% Renormalization α-SMA” value [2]?
**A.** +++ (+++ = >60%)

**Q.** Which “% Renormalization Collagen” value [1] does the source give for `N=C(N)NCCCCCCCN` [GC7, N1-guanyl-1,7-diaminoheptane] here?
**A.** + (+ = 0-30%)

**Q.** And the “% Renormalization α-SMA” value [2]?
**A.** + (+ = 0-30%)

**Q.** What does the source list for TGF-β?
**A.** Log2FC TE AKT1 [3]: −0.15; Log2FC TE AKT2 [3]: −0.16; Log2FC TE AKT3 [3]: 0.35; Log2FC TE ATM [3]: −0.16; Log2FC TE EIF1 [3]: 0.75; Log2FC TE EIF2A [3]: 0.74; Log2FC TE EIF2AK1 [3]: −0.25; Log2FC TE EIF2AK3 [3]: 0.67; Log2FC TE EIF2AK4 [3]: −0.28; Log2FC TE EIF2B1 [3]: 0.57; Log2FC TE EIF2B2 [3]: 0.16; Log2FC TE EIF2B3 [3]: 0.54; Log2FC TE EIF2B4 [3]: −0.35; Log2FC TE EIF2B5 [3]: 0.46; Log2FC TE EIF2C2 [3]: 0.12; Log2FC TE EIF2S1 [3]: −0.18; Log2FC TE EIF2S2 [3]: −0.43; Log2FC TE EIF2S3 [3]: 1.05; Log2FC TE EIF3A [3]: 0.04; Log2FC TE EIF3B [3]: 0.30; Log2FC TE EIF3D [3]: 0.71; Log2FC TE EIF3E [3]: 1.33; Log2FC TE EIF3F [3]: 0.92; Log2FC TE EIF3G [3]: 0.55; Log2FC TE EIF3H [3]: 1.34; Log2FC TE EIF3I [3]: 0.29; Log2FC TE EIF3K [3]: 0.73; Log2FC TE EIF3L [3]: 1.63; Log2FC TE EIF3M [3]: 0.90; Log2FC TE EIF4A1 [3]: 0.35; Log2FC TE EIF4A2 [3]: 0.41; Log2FC TE EIF4A3 [3]: 0.19; Log2FC TE EIF4E [3]: −0.51; Log2FC TE EIF4G1 [3]: 0.10; Log2FC TE EIF4G2 [3]: 0.87; Log2FC TE EIF4G3 [3]: −0.54; Log2FC TE EIF5 [3]: 0.56; Log2FC TE FAU [3]: 0.35; Log2FC TE GRB2 [3]: 0.05; Log2FC TE GSK3B [3]: −0.13; Log2FC TE HRAS [3]: 0.13; Log2FC TE MAP2K1 [3]: −0.18; Log2FC TE MAP2K2 [3]: 0.02; Log2FC TE MAPK1 [3]: 0.12; Log2FC TE MAPK3 [3]: 0.29; Log2FC TE MRAS [3]: −0.45; Log2FC TE NRAS [3]: 0.19; Log2FC TE PABPC1 [3]: 0.16; Log2FC TE PAIP1 [3]: −0.69; Log2FC TE PIK3C2A [3]: −0.64; Log2FC TE PIK3C3 [3]: −0.09; Log2FC TE PIK3CA [3]: −0.66; Log2FC TE PIK3R4 [3]: −0.69; Log2FC TE PPP1CA [3]: 0.04; Log2FC TE PPP1CB [3]: 0.13; Log2FC TE PPP1CC [3]: 0.27; Log2FC TE PPP1R15A [3]: −0.09; Log2FC TE RAF1 [3]: 0.16; Log2FC TE RPL3 [3]: 1.68; Log2FC TE RPL4 [3]: 1.23; Log2FC TE RPL5 [3]: 1.49; Log2FC TE RPL6 [3]: 1.13; Log2FC TE RPL7 [3]: 0.59; Log2FC TE RPL7A [3]: 1.37; Log2FC TE RPL8 [3]: 0.69; Log2FC TE RPL9 [3]: 1.41; Log2FC TE RPL10 [3]: 0.74; Log2FC TE RPL10A [3]: 0.92; Log2FC TE RPL11 [3]: 0.78; Log2FC TE RPL12 [3]: 1.28; Log2FC TE RPL13 [3]: 0.83; Log2FC TE RPL13A [3]: 1.26; Log2FC TE RPL14 [3]: 1.08; Log2FC TE RPL15 [3]: 0.95; Log2FC TE RPL17 [3]: 0.97; Log2FC TE RPL18 [3]: 0.81; Log2FC TE RPL18A [3]: 1.06; Log2FC TE RPL19 [3]: 0.71; Log2FC TE RPL21 [3]: 0.83; Log2FC TE RPL22 [3]: 0.22; Log2FC TE RPL22L1 [3]: 0.84; Log2FC TE RPL23 [3]: 0.79; Log2FC TE RPL23A [3]: 1.03; Log2FC TE RPL24 [3]: 1.09; Log2FC TE RPL26 [3]: 1.42; Log2FC TE RPL27 [3]: 1.17; Log2FC TE RPL27A [3]: 1.17; Log2FC TE RPL28 [3]: 1.24; Log2FC TE RPL29 [3]: 1.16; Log2FC TE RPL30 [3]: 1.20; Log2FC TE RPL31 [3]: 0.80; Log2FC TE RPL32 [3]: 1.55; Log2FC TE RPL34 [3]: 1.21; Log2FC TE RPL35 [3]: 0.59; Log2FC TE RPL35A [3]: 1.22; Log2FC TE RPL36 [3]: 0.76; Log2FC TE RPL36AL [3]: −0.08; Log2FC TE RPL37 [3]: 1.31; Log2FC TE RPL37A [3]: 1.33; Log2FC TE RPL38 [3]: 1.00; Log2FC TE RPL41 [3]: 0.85; Log2FC TE RPLP0 [3]: 0.73; Log2FC TE RPLP1 [3]: 0.50; Log2FC TE RPLP2 [3]: 0.93; Log2FC TE RPS2 [3]: 0.88; Log2FC TE RPS3 [3]: 1.22; Log2FC TE RPS3A [3]: 1.48; Log2FC TE RPS4X [3]: 1.14; Log2FC TE RPS4Y1 [3]: 0.78; Log2FC TE RPS5 [3]: 0.75; Log2FC TE RPS6 [3]: 1.59; Log2FC TE RPS7 [3]: 1.13; Log2FC TE RPS8 [3]: 1.20; Log2FC TE RPS9 [3]: 0.97; Log2FC TE RPS10 [3]: 0.74; Log2FC TE RPS11 [3]: 0.97; Log2FC TE RPS12 [3]: 0.94; Log2FC TE RPS13 [3]: 1.15; Log2FC TE RPS14 [3]: 1.01; Log2FC TE RPS15 [3]: 0.74; Log2FC TE RPS15A [3]: 1.53; Log2FC TE RPS16 [3]: 1.10; Log2FC TE RPS18 [3]: 1.18; Log2FC TE RPS19 [3]: 0.99; Log2FC TE RPS20 [3]: 1.39; Log2FC TE RPS21 [3]: 1.36; Log2FC TE RPS23 [3]: 0.74; Log2FC TE RPS24 [3]: 0.66; Log2FC TE RPS25 [3]: 1.58; Log2FC TE RPS26 [3]: 0.71; Log2FC TE RPS27 [3]: 1.08; Log2FC TE RPS27A [3]: 0.71; Log2FC TE RPS27L [3]: −0.15; Log2FC TE RPS28 [3]: 0.74; Log2FC TE RPS29 [3]: 0.89; Log2FC TE RPSA [3]: 0.99; Log2FC TE RRAS [3]: 0.00; Log2FC TE RRAS2 [3]: 0.02; Log2FC TE SHC1 [3]: −0.04; Log2FC TE SOS2 [3]: 0.49; Log2FC TE UBA52 [3]: 0.87
